# Data reported in patent US8263598B2, “Substituted sulfonamide compounds” (Gruenenthal GmbH, priority 2008, dated 2012).
# How the values were obtained:
# [1] = molecular target: T1, human B1R receptor (hB1R) (Homo sapiens, UniProt P46663); assay: FLIPR Ca2+ assay on human bradykinin 1 receptor (CHO K1 hB1R cells); format: cell-based; conditions: test substance 10 μM; CHO K1 cells with human B1R gene; agonist Lys-Des-Arg9-bradykinin 0.5 nM; compared to maximum achievable inhibition
# T1 construct: host or cells: CHO K1 cells
# T1 sequence (P46663 1-353): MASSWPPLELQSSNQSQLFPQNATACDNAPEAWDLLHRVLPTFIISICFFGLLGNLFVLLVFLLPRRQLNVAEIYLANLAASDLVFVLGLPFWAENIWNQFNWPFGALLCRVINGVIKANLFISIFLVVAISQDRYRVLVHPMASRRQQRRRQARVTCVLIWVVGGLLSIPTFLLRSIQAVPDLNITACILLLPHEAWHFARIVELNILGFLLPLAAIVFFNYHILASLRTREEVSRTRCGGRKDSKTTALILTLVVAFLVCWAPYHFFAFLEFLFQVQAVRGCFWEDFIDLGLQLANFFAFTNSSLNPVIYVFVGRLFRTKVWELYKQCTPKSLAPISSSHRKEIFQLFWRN
# Outline: (§1)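 Values are percent inhibition of agonist-evoked Ca²⁺ influx, measured by Fluo-4 fluorescence peak in FLIPR relative to maximum achievable inhibition. Compound at 10 μM was preincubated 10 min on B1R-transfected CHO K1 cells before challenge with 0.5 nM Lys-Des-Arg9-bradykinin (human) or 100 nM Des-Arg9-bradykinin (rat).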
# [2] = molecular target: T2, B1R receptor of rats (rB1R) (Rattus norvegicus, UniProt P97583); assay: FLIPR Ca2+ assay on rat bradykinin 1 receptor (CHO K1 rB1R cells); format: cell-based; conditions: test substance 10 μM; CHO K1 cells with B1R gene of rats; agonist Des-Arg9-bradykinin 100 nM; compared to maximum achievable inhibition
# T2 construct: host or cells: CHO K1 cells
# T2 sequence (P97583 1-337): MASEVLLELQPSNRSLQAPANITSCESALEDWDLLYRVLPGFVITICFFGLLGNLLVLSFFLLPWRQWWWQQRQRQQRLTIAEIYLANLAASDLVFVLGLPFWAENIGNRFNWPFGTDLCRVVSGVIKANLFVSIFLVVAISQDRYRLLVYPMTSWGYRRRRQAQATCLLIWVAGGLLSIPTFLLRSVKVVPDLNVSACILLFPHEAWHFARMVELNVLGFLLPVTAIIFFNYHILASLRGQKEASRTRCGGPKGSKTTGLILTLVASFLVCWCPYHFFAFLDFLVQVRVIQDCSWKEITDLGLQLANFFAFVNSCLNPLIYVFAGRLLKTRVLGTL
# Outline: as §1
hB1R [10 μM] % Inhibition [1] [%],rB1R [10 μM] % Inhibition [2] [%],inhibition at 10 µM [1] [%],inhibition at 10 µM [2] [%],Structure (SMILES)
–,–,104,102,"CCC1c2ccc(C)n2CCN1C(=O)COCCN(C)S(=O)(=O)c1c(C)cc(OC)cc1C (centres unmarked) [Example 138, N-(2-(2-(1-ethyl-6-methyl-3,4-dihydropyrrolo[1,2-a]pyrazin-2(1H)-yl)-2-oxoethoxy)ethyl)-4-methoxy-N,2,6-trimethylbenzenesulfonamide]"
–,–,102,103,"Cc1cc(C)c(S(=O)(=O)N(C)CCOCC(=O)N2CCn3c(CN(C)C)ccc3C2c2ccccc2)c(C)c1 (centres unmarked) [Example 139, N-(2-(2-(6-((dimethylamino)methyl)-1-phenyl-3,4-dihydropyrrolo[1,2-a]pyrazin-2(1H)-yl)-2-oxoethoxy)ethyl)-N,2,4,6-tetramethylbenzenesulfonamide]"
–,–,102,101,"Cc1cc(C)c(S(=O)(=O)N(C)CCOCC(=O)N2CCn3c(CN4CCCC4)ccc3C2c2ccccc2)c(C)c1 (centres unmarked) [Example 140, N,2,4,6-tetramethyl-N-(2-(2-oxo-2-(1-phenyl-6-(pyrrolidin-1-ylmethyl)-3,4-dihydropyrrolo[1,2-a]pyrazin-2(1H)-yl)ethoxy)ethyl)benzenesulfonamide]"
–,–,103,101,"Cc1cc(C)c(S(=O)(=O)N(C)CCOCC(=O)N2CCn3c(CN4CCCCC4)ccc3C2c2ccccc2)c(C)c1 (centres unmarked) [Example 141, N,2,4,6-tetramethyl-N-(2-(2-oxo-2-(1-phenyl-6-(piperidin-1-ylmethyl)-3,4-dihydropyrrolo[1,2-a]pyrazin-2(1H)-yl)ethoxy)ethyl)benzenesulfonamide]"
–,–,103,101,"Cc1cc(C)c(S(=O)(=O)N(C)CCOCC(=O)N2CCn3c(CN4CCOCC4)ccc3C2c2ccccc2)c(C)c1 (centres unmarked) [Example 142, N,2,4,6-tetramethyl-N-(2-(2-(6-(morpholinomethyl)-1-phenyl-3,4-dihydro-pyrrolo[1,2-a]pyrazin-2(1H)-yl)-2-oxoethoxy)ethyl)benzenesulfonamide]"
–,–,100,99,"Cc1cc(C)c(S(=O)(=O)N(C)CCOCC(=O)N2CCn3c(CN(C)C)ccc3C2Cc2ccccc2)c(C)c1 (centres unmarked) [Example 143, N-(2-(2-(1-benzyl-6-((dimethylamino)methyl)-3,4-dihydropyrrolo[1,2-a]pyrazin-2(1H)-yl)-2-oxoethoxy)ethyl)-N,2,4,6-tetramethylbenzenesulfonamide]"
–,–,104,104,"Cc1cc(C)c(S(=O)(=O)N(C)CCOCC(=O)N2CCn3c(CN(C)C)ccc3C2c2cccs2)c(C)c1 (centres unmarked) [Example 144, N-(2-(2-(6-((dimethylamino)methyl)-1-(thiophen-2-yl)-3,4-dihydropyrrolo[1,2-a]pyrazin-2(1H)-yl)-2-oxoethoxy)ethyl)-N,2,4,6-tetramethylbenzenesulfonamide]"
–,–,104,103,"CCC1c2ccc(CN(C)C)n2CCN1C(=O)COCCN(C)S(=O)(=O)c1c(C)cc(C)cc1C (centres unmarked) [Example 145, N-(2-(2-(6-((dimethylamino)methyl)-1-ethyl-3,4-dihydropyrrolo[1,2-a]pyrazin-2(1H)-yl)-2-oxoethoxy)ethyl)-N,2,4,6-tetramethylbenzenesulfonamide]"
–,–,102,102,"CCCC1c2cccn2CCN1C(=O)COCCN(C)S(=O)(=O)c1c(C)cc(C)cc1C (centres unmarked) [Example 146, N,2,4,6-tetramethyl-N-(2-(2-oxo-2-(1-propyl-3,4-dihydropyrrolo[1,2-a]pyrazin-2(1H)-yl)ethoxy)ethyl)benzenesulfonamide]"
–,–,103,103,"Cc1cc(C)c(S(=O)(=O)N(C)CCOCC(=O)N2CCn3cccc3C2C(C)C)c(C)c1 (centres unmarked) [Example 147, N-(2-(2-(1-isopropyl-3,4-dihydropyrrolo[1,2-a]pyrazin-2(1H)-yl)-2-oxoethoxy)ethyl)-N,2,4,6-tetramethylbenzenesulfonamide]"
–,–,100,98,"COc1cc(C)c(S(=O)(=O)N(C)CCOCC(=O)N2CCn3cccc3C2CCc2ccccc2)c(C)c1C (centres unmarked) [Example 148, 4-methoxy-N,2,3,6-tetramethyl-N-(2-(2-oxo-2-(1-phenethyl-3,4-dihydropyrrolo[1,2-a]pyrazin-2(1H)-yl)ethoxy)ethyl)benzenesulfonamide]"
–,–,104,104,"COc1cc(C)c(S(=O)(=O)N(C)CCOCC(=O)N2CCn3c(CN4CCCCC4)ccc3C2c2ccccc2)c(C)c1C (centres unmarked) [Example 149, 4-methoxy-N,2,3,6-tetramethyl-N-(2-(2-oxo-2-(1-phenyl-6-(piperidin-1-ylmethyl)-3,4-dihydropyrrolo[1,2-a]pyrazin-2(1H)-yl)ethoxy)ethyl)benzene-sulfonamide]"
–,–,103,103,"COc1cc(C)c(S(=O)(=O)N(C)CCOCC(=O)N2CCn3c(CN4CCOCC4)ccc3C2c2ccccc2)c(C)c1C (centres unmarked) [Example 150, 4-methoxy-N,2,3,6-tetramethyl-N-(2-(2-(6-(morpholinomethyl)-1-phenyl-3,4-dihydropyrrolo[1,2-a]pyrazin-2(1H)-yl)-2-oxoethoxy)ethyl)benzenesulfonamide]"

# Second part, the compound before the results:
Structure (SMILES),hB1R [10 μM] % Inhibition [1] [%],rB1R [10 μM] % Inhibition [2] [%],inhibition at 10 µM [1] [%],inhibition at 10 µM [2] [%]
"COc1cc(C)c(S(=O)(=O)N(CCOCC(=O)N2CCn3c(CN(C)C)ccc3C2Cc2ccccc2)Cc2ccccc2)c(C)c1 (centres unmarked) [Example 129, N-benzyl-N-(2-(2-(1-benzyl-6-((dimethylamino)methyl)-3,4-dihydropyrrolo[1,2-a]pyrazin-2-(1H)-yl)-2-oxoethoxy)ethyl)-4-methoxy-2,6-dimethylbenzene-sulfonamide]",100,101,–,–
"COc1cc(C)c(S(=O)(=O)N(CCOCC(=O)N2CCn3c(CN(C)C)ccc3C2c2cccs2)Cc2ccccc2)c(C)c1 (centres unmarked) [Example 130, N-benzyl-N-(2-(2-(6-((dimethylamino)methyl)-1-(thiophen-2-yl)-3,4-dihydropyrrolo[1,2-a]pyrazin-2(1H)-yl)-2-oxoethoxy)ethyl)-4-methoxy-2,6-dimethyl-benzenesulfonamide]",–,–,104,102
"CCC1c2ccc(CN(C)C)n2CCN1C(=O)COCCN(Cc1ccccc1)S(=O)(=O)c1c(C)cc(OC)cc1C (centres unmarked) [Example 131, N-benzyl-N-(2-(2-(6-((dimethylamino)methyl)-1-ethyl-3,4-dihydropyrrolo[1,2-a]pyrazin-2(1H)-yl)-2-oxoethoxy)ethyl)-4-methoxy-2,6-dimethylbenzene-sulfonamide]",–,–,101,101
"CCC1c2cccn2CCN1C(=O)COCCN(Cc1ccccc1)S(=O)(=O)c1c(C)cc(OC)cc1C (centres unmarked) [Example 132, N-benzyl-N-(2-(2-(1-ethyl-3,4-dihydropyrrolo[1,2-a]pyrazin-2(1H)-yl)-2-oxoethoxy)ethyl)-4-methoxy-2,6-dimethylbenzenesulfonamide]",–,–,100,102
"COc1cc(C)c(S(=O)(=O)N(C)CCOCC(=O)N2CCn3cccc3C2CCc2ccccc2)c(C)c1 (centres unmarked) [Example 133, 4-methoxy-N,2,6-trimethyl-N-(2-(2-oxo-2-(1-phenethyl-3,4-dihydropyrrolo[1,2-a]pyrazin-2(1H)-yl)ethoxy)ethyl)benzenesulfonamide]",–,–,105,102
"CCCCC1c2ccc(CN(C)C)n2CCN1C(=O)COCCN(C)S(=O)(=O)c1c(C)cc(OC)cc1C (centres unmarked) [Example 134, N-(2-(2-(1-butyl-6-((dimethylamino)methyl)-3,4-dihydropyrrolo[1,2-a]pyrazin-2(1H)-yl)-2-oxoethoxy)ethyl)-4-methoxy-N,2,6-trimethylbenzenesulfonamide]",–,–,104,103
"CCC1c2cccn2CCN1C(=O)COCCN(C)S(=O)(=O)c1c(C)cc(OC)cc1C (centres unmarked) [Example 135, N-(2-(2-(1-ethyl-3,4-dihydropyrrolo[1,2-a]pyrazin-2(1H)-yl)-2-oxoethoxy)ethyl)-4-methoxy-N,2,6-trimethylbenzenesulfonamide]",–,–,104,102
"CCCC1c2cccn2CCN1C(=O)COCCN(C)S(=O)(=O)c1c(C)cc(OC)cc1C (centres unmarked) [Example 136, 4-methoxy-N,2,6-trimethyl-N-(2-(2-oxo-2-(1-propyl-3,4-dihydropyrrolo[1,2-a]-pyrazin-2(1H)-yl)ethoxy)ethyl)benzenesulfonamide]",–,–,104,103
"COc1cc(C)c(S(=O)(=O)N(C)CCOCC(=O)N2CCn3cccc3C2C(C)C)c(C)c1 (centres unmarked) [Example 137, N-(2-(2-(1-isopropyl-3,4-dihydropyrrolo[1,2-a]pyrazin-2(1H)-yl)-2-oxoethoxy)ethyl)-4-methoxy-N,2,6-trimethylbenzenesulfonamide]",–,–,104,102
